Test results taken from patent US20240182460A1, “ALLOSTERIC CHROMENONE INHIBITORS OF PHOSPHOINOSITIDE 3-KINASE (PI3K) FOR THE TREATMENT OF DISEASE” (PETRA PHARMA CORPORATION, priority 2022, published 2024).

Experiments:
[1] = Metabolic stability and intrinsic clearance in human liver microsomes (MICS); type: in vitro ADME; conditions: human, microsomes, pH 7.4
In short: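 Parent depletion by LC-MS/MS, run in duplicate, gave in vitro t1/2 from the slope of ln(% remaining) versus time, converted to CLint (μL/min/mg protein). Incubations: 1 μM compound, microsomes at 0.5 mg/mL, pH 7.4 phosphate, 37° C, ±1 mM NADPH, timepoints 0.5, 5, 15, 30, 60 min.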

PI3Kα E545K [2] = biological target: T1, PI3Kα E545K (Homo sapiens, UniProt P42336, E545K); test: PI3Kα E545K mutant in vitro cell based assay, MDA-MB-361 cells; set-up: MDA-MB-361 (ATCC-HTB-27) cell line (PI3Kα E545K); host or cells: MDA-MB-361; conditions: MDA-MB-361 cell line, 0% FBS, no insulin, 3 hours treatment
T1 sequence (P42336 whole entry E545K): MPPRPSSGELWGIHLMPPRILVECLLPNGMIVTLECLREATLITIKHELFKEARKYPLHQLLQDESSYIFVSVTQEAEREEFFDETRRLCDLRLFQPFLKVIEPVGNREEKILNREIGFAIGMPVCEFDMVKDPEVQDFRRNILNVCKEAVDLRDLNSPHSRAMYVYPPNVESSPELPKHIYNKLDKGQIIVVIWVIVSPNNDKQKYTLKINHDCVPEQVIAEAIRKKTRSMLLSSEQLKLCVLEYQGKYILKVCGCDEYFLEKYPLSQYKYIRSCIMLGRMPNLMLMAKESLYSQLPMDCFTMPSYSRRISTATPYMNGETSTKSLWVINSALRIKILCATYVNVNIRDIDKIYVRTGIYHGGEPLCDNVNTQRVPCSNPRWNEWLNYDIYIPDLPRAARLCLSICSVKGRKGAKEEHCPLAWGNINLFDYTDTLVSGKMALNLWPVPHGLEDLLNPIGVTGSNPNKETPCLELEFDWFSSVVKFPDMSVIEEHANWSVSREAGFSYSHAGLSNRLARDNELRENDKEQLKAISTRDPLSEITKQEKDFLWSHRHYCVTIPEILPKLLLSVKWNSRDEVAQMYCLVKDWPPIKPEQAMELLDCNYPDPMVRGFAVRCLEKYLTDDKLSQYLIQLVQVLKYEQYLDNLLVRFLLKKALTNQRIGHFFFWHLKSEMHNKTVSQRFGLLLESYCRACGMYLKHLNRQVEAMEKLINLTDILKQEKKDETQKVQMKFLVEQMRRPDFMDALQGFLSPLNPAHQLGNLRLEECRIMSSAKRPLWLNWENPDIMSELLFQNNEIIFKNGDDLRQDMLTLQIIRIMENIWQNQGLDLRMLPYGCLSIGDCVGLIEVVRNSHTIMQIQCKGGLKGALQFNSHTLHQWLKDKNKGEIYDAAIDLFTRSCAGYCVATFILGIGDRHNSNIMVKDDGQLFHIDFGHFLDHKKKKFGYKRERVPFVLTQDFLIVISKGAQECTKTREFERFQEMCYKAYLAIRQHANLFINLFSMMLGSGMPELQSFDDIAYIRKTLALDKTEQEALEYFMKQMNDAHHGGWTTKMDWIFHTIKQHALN
T1 sequence (P27986 whole entry partner): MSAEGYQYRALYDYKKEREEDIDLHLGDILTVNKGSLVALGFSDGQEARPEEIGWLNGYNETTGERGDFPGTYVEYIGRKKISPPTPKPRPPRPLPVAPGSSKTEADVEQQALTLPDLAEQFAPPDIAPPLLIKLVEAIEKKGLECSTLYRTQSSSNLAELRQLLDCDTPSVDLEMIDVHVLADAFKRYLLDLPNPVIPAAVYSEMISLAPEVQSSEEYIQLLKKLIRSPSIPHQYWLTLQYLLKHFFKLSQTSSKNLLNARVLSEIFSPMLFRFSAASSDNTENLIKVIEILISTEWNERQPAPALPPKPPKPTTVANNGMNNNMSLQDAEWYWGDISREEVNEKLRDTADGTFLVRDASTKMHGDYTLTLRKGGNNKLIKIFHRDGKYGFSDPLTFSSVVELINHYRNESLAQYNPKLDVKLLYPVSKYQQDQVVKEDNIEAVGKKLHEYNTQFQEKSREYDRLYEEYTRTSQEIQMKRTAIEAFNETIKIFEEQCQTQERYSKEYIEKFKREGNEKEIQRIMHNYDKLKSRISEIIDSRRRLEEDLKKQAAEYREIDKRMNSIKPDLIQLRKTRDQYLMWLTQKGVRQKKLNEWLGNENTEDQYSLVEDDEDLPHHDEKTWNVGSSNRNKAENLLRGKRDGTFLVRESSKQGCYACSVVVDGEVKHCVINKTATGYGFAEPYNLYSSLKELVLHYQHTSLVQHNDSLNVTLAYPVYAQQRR
Excerpt: (§1) PI3K-Alpha Kinase (PI3Kα) Activity: Wild-Type PI3Kα, H1047R Mutant PI3Kα, and E545K Mutant PI3Kα In Vitro Cell Based Assays and Determination of IC50 Values for Inhibitors
(§2) The MDA-MB-453 (ATCC-HTB-131) cell line (PI3Kα H1047R) and MCF-7 (ATCC-HTB-22) cell line (PI3Kα E545K), MDA-MB-361 (ATCC-HTB-27) cell line (PI3Kα E545K), and SKBR3 (ATCC-HTB-30) cell line (wild type PI3Kα) were obtained from the American Type Culture Collection (Manassas, VA). MDA-MB-453 cells were maintained in Dulbecco's Modified Eagle Media (DMEM, Gibco 12430) supplemented with 10% Fetal Bovine Serum, heat inactivated (FBS HI, Gibco 10082), 1× non-essential amino acids (NEAA, Gibco 11140), 1 mM sodium pyruvate (Gibco 11360) and 1× Anti-Anti (Gibco 15240). MCF-7 cells were maintained in Minimum Essential Media (MEM) (Gibco 11095) supplemented with 10% Fetal Bovine Serum, heat inactivated (FBS HI, Gibco 10082), 1× non-essential amino acids (NEAA, Gibco 11140), 1 mM sodium pyruvate (Gibco 11360), 1× Anti-Anti (Gibco 15240) and 10 μg/mL human insulin (Sigma I 9278). MDA-MB-361 cells were maintained in Dulbecco's Modified Eagle Media (DMEM, Gibco 12430) supplemented with 20% Fetal Bovine Serum, heat inactivated (FBS HI, Gibco 10082), 1× non-essential amino acids (NEAA, Gibco 11140), 1 mM sodium pyruvate (Gibco 11360) and 1× Anti-Anti (Gibco 15240). SKBR3 cells were maintained in McCoy's 5A (Gibco 16600) supplemented with 10% Fetal Bovine Serum, heat inactivated (FBS HI, Gibco 10082), and 1× Anti-Anti (Gibco 15240). Cultures were maintained in a humidified incubator at 37° C. under 5% CO2/95% air.
(§3) For compound testing in 0% FBS, MDA-MB-453, MCF-7 and SKBR3 cells were seeded at a density of 1.5×10^4, 1.0×10^4, and 1.0×10^4 cells, respectively, per well in white 384-well plates in 20 μl of Minimum Essential Media (MEM) assay media with 1×NEAA, 1 mM sodium pyruvate, and 1 μg/mL human insulin (Sigma 19278) (Assay Medium); while MDA-MB-361 cells were seeded at a density of 1.5×10^4 per well in white 384-well plates in 20 μl Assay Medium without insulin. After plating, cells were allowed to attach overnight. Compounds dissolved in 10 mM stock solutions in DMSO were serially diluted 1:3 in DMSO to generate a 10-point dilution series and plated using an acoustic liquid handler system (Echo 550 Series Liquid Handler, Labcyte). A 5× intermediate compound dilution plate in MEM with 1×NEAA and 1 mM sodium pyruvate (150 μM starting compound concentration in 1.5% DMSO) was then prepared. Five μl of the intermediate serially diluted compounds were added to the cell plate to final concentrations ranging from […] in 0.3% DMSO. 0.3% DMSO alone was used to establish the maximum (MAX) signal and GDC-0032 at a final concentration of 1 μM was used as a reference compound for the minimum (MIN) signal. After 3 hours treatment, the medium was removed, and the cells were lysed in 10 μL of 1× SureFire Lysis buffer with shaking for 10 minutes at room temperature. The Acceptor Mix (Reaction Buffer 1+Reaction Buffer 2+Activation Buffer+SureFire Ultra Acceptor Beads) was prepared by diluting Activation buffer 25-fold in combined Reaction Buffer 1 and Reaction Buffer 2.
(§4) The Acceptor beads were diluted 50-fold in the combined Reaction Buffers. Five μL of Acceptor Mix was added to each well, the plate was sealed and covered with foil and incubated for 1 hour at room temperature. The Donor Mix (dilution buffer+SureFire Ultra Donor Beads) was prepared by diluting Donor Beads 50-fold in dilution buffer. Five μL of the Donor Mix was added to each well and the plate sealed and covered with foil and incubated for 1-2 hours at room temperature in the dark. The plates were read on a Neo2 plate reader instrument from Biotek using standard AlphaLisa settings.
(§5) Compounds were tested in duplicate and the % inhibition at each compound concentration was used to generate two dose response curves. One IC50 was generated using average % inhibition at each compound concentration. […]

PI3Kα E545K [3] = biological target: T1, PI3Kα E545K; test: PI3Kα E545K mutant in vitro cell based assay, MCF-7 cells; conditions: MCF-7 cell line, 0% FBS, 3 hours treatment
Excerpt: as §1, §2, §3, §4, §5

microsomal CLint at 1 μM [1] [µL/min/mg]	IC50 (PI3Kα E545K [2]) [nM]	IC50 (PI3Kα E545K [3]) [nM]	SMILES
–	–	< 500	Cc1cc([C@@H](C)Oc2ccc(Cl)nc2C(N)=O)c2oc(-c3ccc4c(c3)ncn4C)c(C)c(=O)c2c1 [Example 69A, 6-Chloro-3-[(1R)-1-[3,6-dimethyl-2-(1-methylbenzimidazol-5-yl)-4-oxo-chromen-8-yl]ethoxy]pyridine-2-carboxamide]
< 50	< 500	–	Cc1cc([C@@H](C)Oc2ccc(F)nc2S(N)(=O)=O)c2oc(-c3ccccc3)c(C)c(=O)c2c1 [Example 74C, 3-[(1R)-1-(3,6-Dimethyl-4-oxo-2-phenyl-chromen-8-yl)ethoxy]-6-fluoro-pyridine-2-sulfonamide]
< 50	< 500	–	CCn1cc2cc(-c3oc4c([C@@H](C)Oc5ccc(Cl)nc5C(N)=O)cc(C)cc4c(=O)c3C)ccc2n1 [Example 75C, 6-Chloro-3-[(1R)-1-[2-(2-ethylindazol-5-yl)-3,6-dimethyl-4-oxo-chromen-8-yl]ethoxy]pyridine-2-carboxamide]
< 50	< 500	–	Cc1cc([C@@H](C)Oc2ccc(Cl)nc2C(N)=O)c2oc(-c3cnc(OC(C)C)nc3)c(C)c(=O)c2c1 [Example 79C, 6-Chloro-3-[(1R)-1-[2-(2-isopropoxypyrimidin-5-yl)-3,6-dimethyl-4-oxo-chromen-8-yl]ethoxy]pyridine-2-carboxamide]
< 50	< 500	–	Cc1cc([C@@H](C)Oc2ccc(Cl)nc2C(N)=O)c2oc(-c3cnc4ccoc4c3)c(C)c(=O)c2c1 [Example 80C, 6-Chloro-3-[(1R)-1-(2-furo[3,2-b]pyridin-6-yl-3,6-dimethyl-4-oxo-chromen-8-yl)ethoxy]pyridine-2-carboxamide]
< 50	< 500	–	Cc1cc([C@@H](C)Oc2ccc(Cl)cc2S(N)(=O)=O)c2oc(-c3cnn(C)c3)c(C)c(=O)c2c1 [Example 99C, 5-Chloro-2-[(1R)-1-[3,6-dimethyl-2-(1-methylpyrazol-4-yl)-4-oxo-chromen-8-yl]ethoxy]benzenesulfonamide]
< 50	< 500	–	Cc1cc([C@@H](C)Oc2ccc(Cl)cc2S(N)(=O)=O)c2oc(C3CC3)c(C)c(=O)c2c1 [Example 101C, 5-Chloro-2-[(1R)-1-(2-cyclopropyl-3,6-dimethyl-4-oxo-chromen-8-yl)ethoxy]benzenesulfonamide]
< 50	< 500	–	Cc1cc([C@@H](C)Oc2ccc(F)cc2S(N)(=O)=O)c2oc(-c3cnn(C)c3)c(C)c(=O)c2c1 [Example 105C, 2-[(1R)-1-[3,6-Dimethyl-2-(1-methylpyrazol-4-yl)-4-oxo-chromen-8-yl]ethoxy]-5-fluoro-benzenesulfonamide]

Continued, compound first:

SMILES	microsomal CLint at 1 μM [1] [µL/min/mg]	IC50 (PI3Kα E545K [2]) [nM]	IC50 (PI3Kα E545K [3]) [nM]
Cc1cc([C@@H](C)Oc2ccc(Cl)nc2S(N)(=O)=O)c2oc(-c3cnn(CC(C)(C)O)c3)c(C)c(=O)c2c1 [Example 2B, 6-Chloro-3-[(1R)-1-[2-[1-(2-hydroxy-2-methyl-propyl)pyrazol-4-yl]-3,6-dimethyl-4-oxo-chromen-8-yl]ethoxy]pyridine-2-sulfonamide]	< 50	< 500	–
Cc1cc([C@@H](C)Oc2ccc(Cl)nc2S(N)(=O)=O)c2oc(-c3cnn(C[C@@H](C)O)c3)c(C)c(=O)c2c1 [Example 4B, 6-Chloro-3-[(1R)-1-[2-[1-[(2R)-2-hydroxypropyl]pyrazol-4-yl]-3,6-dimethyl-4-oxo-chromen-8-yl]ethoxy]pyridine-2-sulfonamide]	< 50	< 500	–
Cc1cc([C@@H](C)Oc2ccc(Cl)nc2C(N)=O)c2oc(-c3ccc4nn(C)cc4c3)c(C)c(=O)c2c1 [Example 11A, 6-Chloro-3-[(1R)-1-[3,6-dimethyl-2-(2-methylindazol-5-yl)-4-oxo-chromen-8-yl]ethoxy]pyridine-2-carboxamide]	< 50	< 500	–
Cc1cc([C@@H](C)Oc2ccc(Cl)nc2S(N)(=O)=O)c2oc(-c3cnoc3)c(C)c(=O)c2c1 [Example 12C, 6-Chloro-3-[(1R)-1-(2-isoxazol-4-yl-3,6-dimethyl-4-oxo-chromen-8-yl)ethoxy]pyridine-2-sulfonamide]	–	–	< 500
Cc1cc([C@@H](C)Oc2ccc(Cl)nc2C(N)=O)c2oc(-c3ccc4c(c3)CN(C)C4=O)c(C)c(=O)c2c1 [Example 14B, 6-Chloro-3-[(1R)-1-[3,6-dimethyl-2-(2-methyl-1-oxo-isoindolin-5-yl)-4-oxo-chromen-8-yl]ethoxy]pyridine-2-carboxamide]	–	–	< 500
Cc1cc([C@@H](C)Oc2ccc(Cl)nc2C(N)=O)c2oc(-c3ccc4c(c3)C(=O)N(C)C4)c(C)c(=O)c2c1 [Example 15B, 6-Chloro-3-[(1R)-1-[3,6-dimethyl-2-(2-methyl-3-oxo-isoindolin-5-yl)-4-oxo-chromen-8-yl]ethoxy]pyridine-2-carboxamide]	–	–	< 500
Cc1cc([C@@H](C)Oc2ccc(Cl)nc2C(N)=O)c2oc(-c3ccccn3)c(C)c(=O)c2c1 [Example 19A, 6-Chloro-3-[(1R)-1-[3,6-dimethyl-4-oxo-2-(2-pyridyl)chromen-8-yl]ethoxy]pyridine-2-carboxamide]	–	–	< 500
Cc1cc([C@@H](C)Oc2ccc(Cl)nc2C(N)=O)c2oc(-c3cnn(C)c3)c(C)c(=O)c2c1 [Example 22A, 6-Chloro-3-[(1R)-1-[3,6-dimethyl-2-(1-methylpyrazol-4-yl)-4-oxo-chromen-8-yl]ethoxy]pyridine-2-carboxamide]	–	–	< 500
Cc1cc([C@@H](C)Oc2ccc(Cl)nc2S(N)(=O)=O)c2oc(-c3cnc4ccoc4c3)c(C)c(=O)c2c1 [Example 22C, 6-Chloro-3-[(1R)-1-(2-furo[3,2-b]pyridin-6-yl-3,6-dimethyl-4-oxo-chromen-8-yl)ethoxy]pyridine-2-sulfonamide]	< 50	< 500	–
Cc1cc([C@@H](C)Oc2ccc(Cl)nc2C(N)=O)c2oc(-c3ccc4nn(C)c(F)c4c3)c(C)c(=O)c2c1 [Example 48C, 6-Chloro-3-[(1R)-1-[2-(3-fluoro-2-methyl-indazol-5-yl)-3,6-dimethyl-4-oxo-chromen-8-yl]ethoxy]pyridine-2-carboxamide]	–	–	< 500
Cc1cc([C@@H](C)Oc2ccc(Cl)nc2C(N)=O)c2oc(-c3ccc4c(c3)OCCO4)c(C)c(=O)c2c1 [Example 65A, 6-Chloro-3-[(1R)-1-[2-(2,3-dihydro-1,4-benzodioxin-6-yl)-3,6-dimethyl-4-oxo-chromen-8-yl]ethoxy]pyridine-2-carboxamide]	–	–	< 500
